Measured values reported in US20210253598A1, “ARYL ANNULATED MACROCYCLIC INDOLE DERIVATIVES” (priority 2017, published 2021).
Where a name gives a salt, the structure may show the parent alone. Read-outs that look alike come from different tables or passages of the source.

Key:
SUDHL5 = assay: Anti-proliferative effect in SUDHL5 cells, CellTiter-Glo (Assay 7); assay type: cell-based
Method in brief: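 Cells plated and incubated overnight at 37° C, then exposed to compound for 72 hours. Viability read as CellTiter-Glo luminescence, with a day 0 plate as time-zero reference. IC50 calculated with day 0 values and DMSO control values as references.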

MCL-1 = MCL-1 (Homo sapiens, UniProt Q07820, K194A/K197A/R201A); assay: Protein-protein interaction assay MCL-1/Noxa BH3 peptide, TR-FRET (MCL-1 assay, Assay 1); assay type: binding; conditions: MBP-MCL-1 / Noxa BH3 peptide
MCL-1, sequence (Q07820 173-321 K194A/K197A/R201A, looked up): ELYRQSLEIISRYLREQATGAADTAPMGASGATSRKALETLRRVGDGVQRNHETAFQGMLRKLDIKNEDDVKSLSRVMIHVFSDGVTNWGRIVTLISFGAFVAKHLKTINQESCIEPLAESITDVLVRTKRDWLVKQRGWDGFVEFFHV
Method in brief: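 Human MBP-fused MCL-1 (aa 173-321; 1 nM final) was pre-incubated 10 min at 22 °C with compound in pH 7 Tris buffer containing NaCl, KF, Tween-20, DTT and BGG. Displacement of biotinylated Noxa BH3 peptide was read by TR-FRET (anti-MBP-Eu cryptate/streptavidin-XL665) after 1 h at 22 °C plus overnight at 4 °C. IC50 came from four-parameter fits against DMSO controls.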

MCL1 protein = target: T1, MCL1 protein (Homo sapiens, UniProt Q07820); assay: PIxEL: protein-protein interaction in permeabilized cells by ELISA (Assay 5); assay type: cell-based; conditions: permeabilized RKO cells, biotin-BIM BH3 peptide 0.2 μM, serum free
T1 construct: this assay uses full length endogenous MCL1 protein at mitochondria outer membrane; endogenous in cells; host or cells: RKO colon cancer cell line
T1 sequence (Q07820 whole entry): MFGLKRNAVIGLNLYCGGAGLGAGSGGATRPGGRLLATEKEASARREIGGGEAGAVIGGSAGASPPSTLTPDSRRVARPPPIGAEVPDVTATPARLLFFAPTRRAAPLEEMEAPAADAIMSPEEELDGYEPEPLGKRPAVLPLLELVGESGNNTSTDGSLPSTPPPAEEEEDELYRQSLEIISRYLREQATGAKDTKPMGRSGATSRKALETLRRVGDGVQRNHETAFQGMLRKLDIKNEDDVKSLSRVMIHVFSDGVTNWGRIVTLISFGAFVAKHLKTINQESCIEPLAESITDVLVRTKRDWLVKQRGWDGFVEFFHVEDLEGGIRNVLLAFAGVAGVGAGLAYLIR
Experimental: PIxEL: Protein-Protein Interaction in Permeabilized Cells by ELISA
Most MCL1 protein molecules are localized at the mitochondria outer membrane and sequester pro-apoptotic proteins through binding of their BCL2 homology domain 3 (BH3 domain). MEB buffer (150 mM mannitol, 10 mM HEPES pH 7.5, 50 mM KCl, 20 μM EDTA, 20 μM EGTA, 5 mM potassium succinate, 0.1% protease-free BSA (SIGMA) with low dose digitonin (0.002%) permeabilizes plasma membrane while leaves live mitochondria, where MCL1 maintains its native localization and conformation. Unlike biophysical assays (e.g. TR-FRET) that use truncated recombinant MCL1 protein, this assay uses full length endogenous MCL1 protein at mitochondria outer membrane. It measures the interaction between MCL1 protein and biotinylated BIM BH3 peptide. Compounds can compete with BIM BH3 peptide to bind to MCL1 protein.
On day 1, RKO colon cancer cell line cells were plated at 0.8 million cells/ml, 100 μl/well in 96-well flat bottom TC plates (Corning). […] Each plate was tapped to make sure liquid covering entire bottom of wells and incubate at 37° C. overnight.
On the second day, MCL1 antibody was washed from ELISA plate. 250 μl Odyssey® Blocking Buffer (PBS) (Li-Cor) was added to each well, incubated at room temperature for at least 1 hour, then washed once with 250 μl 1×PBST. Plates with RKO cells were gently washed once with 100 μl/well PBS, once with 100 μl/well MEB buffer without digitonin, then 100 μl of MEB buffer with 0.002% digitonin was gently added to each well. Compounds were added with HP Tecan compound dispenser in 3-fold dilution series, highest dose 30 μM, 10-dose per compound in quadruplicates. Biotin-BIM peptide (synthesized by 21st Century) was added with HP Tecan compound dispenser at 0.2 μM immediately after the addition of compounds. Plates were rocked for 1 h at room temperature. Then MEB buffer was aspirated and 50 μl of CHAPS buffer (50 mM Tris-Cl, pH 7.4, 150 mM NaCl, 1% CHAPS, 1 mM EDTA, 1 mM EGTA, complete protease inhibitors (Roche), PhosSTOP (Roche)) was added to each well. Plates were rocked for 1 hour at 4° C., then 45 μl cell lysate from each well were transferred to ELISA plates coated with MCL1 antibody. Plates were incubated overnight in the cold room with rocking.
On the third day, ELISA plates were washed once with 250 μl 1×PBST. Streptavidin-poly-HRP (Thermo Fisher Scientific) was diluted to 20 ng/ml in Odyssey blocking buffer plus 0.05% Triton-100, and 100 μl was added to each well of the ELISA plate. Plates were incubated at RT for 1 hour with rocking, then washed with 100 μL 1×PBST for 3 times. Each SuperSignal ELISA Femto Maximum Sensitivity substrate was added to a 50-ml tube and mixed, then 100 μl of mixed substrate was added to each well. Plates were shaken for 1 minute then luminescence was measured by Envision plate reader […]. Signal of each well were normalized by no-compound control and no-cell control. IC50 was calculated using Graphic Pad PRISM software.

[1] = Homo sapiens, SU-DHL-5, 72 h, SUDHL5, 72 hours incubation, CellTiter-Glo, median, read-out: Antiproli SUDHL5 [M] (median)
[2] = SUDHL5, 72 hours incubation, CellTiter-Glo, median, read-out: Antiproli SUDHL5 [M] (median)
[3] = median, read-out: PIxEL [M] (median)
[4] = median, read-out: MCL-1 Assay [M] (median)
[5] = read-out: Antiproli SUDHL5 [M] (median), SUDHL5, 72 hours incubation, CellTiter-Glo

SMILES	IC50 (SUDHL5; [1]) [M]	IC50 (MCL-1; MCL-1 Assay [M] (median))	IC50 (SUDHL5; [2]) [M]	IC50 (MCL1 protein; PIxEL [M] (median))	IC50 (MCL1 protein; [3]) [M]	IC50 (MCL-1; [4]) [M]	IC50 (SUDHL5; [5]) [M]
Cc1c2c(nn1C)COCc1ccccc1Cn1c(C(=O)O)c(CCCOc3cccc4cc(F)ccc34)c3ccc(Cl)c-2c31 (racemic) [Example 48, (rac)-3-Chloro-17-{3-[(6-fluoronaphthalen-1-yl)oxy]propyl}-4,5-dimethyl-5,7,9,14-tetrahydroindolo[7,1-fg]pyrazolo[3,4-d][2,8]benzoxazacycloundecine-16-carboxylic Acid]	1.6e-06	5.9e-10	–	–	–	–	–
Cc1c2c(nn1C)COCc1ncccc1Cn1c(C(=O)O)c(CCCOc3cccc4ccccc34)c3cccc-2c31 (single isomer, unassigned; enantiomer 1) [Example 8, 4,5-Dimethyl-17-[3-(naphthalen-1-yloxy)propyl]-5,7,9,14-tetrahydropyrazolo[4′,3′:9,10]-pyrido[2′,3′:3,4][1,6]oxazacycloundecino[8,7,6-hi]indole-16-carboxylic acid-N-ethylethanamine Salt (Enantiomer 1)]	–	1.5e-09	3.2e-06	1.82e-05	–	–	–
Cc1c2c(nn1C)COCc1ccccc1Cn1c(C(=O)O)c(CCCOc3cccc4ccccc34)c3ccc(Cl)c-2c31 (single isomer, unassigned; enantiomer 1) [Example 37, (−)-3-Chloro-4,5-dimethyl-17-[3-(naphthalen-1-yloxy)propyl]-5,7,9,14-tetrahydroindolo[7,1-fg]pyrazolo[3,4-d][2,8]benzoxazacycloundecine-16-carboxylic Acid (Enantiomer 1)]	–	1.3e-09	–	1.61e-06	–	–	–
CCNCC.Cc1c2c(nn1C)COCc1ncccc1Cn1c(C(=O)O)c(CCCOc3cccc4ccccc34)c3ccc(Cl)c-2c31 (single isomer, unassigned; enantiomer 1) [Example 43, 3-Chloro-4,5-dimethyl-17-[3-(naphthalen-1-yloxy)propyl]-5,7,9,14-tetrahydropyrazolo-[4′,3′:9,10]pyrido[2′,3′:3,4][1,6]oxazacycloundecino[8,7,6-hi]indole-16-carboxylic acid-N-ethylethanamine Salt (Enantiomer 1)]	–	–	1.2e-06	–	2.97e-06	5.1e-10	–
Cc1c2c(nn1C)COCc1ccccc1Cn1c(C(=O)O)c(CCCOc3cccc4cc(F)ccc34)c3ccc(Cl)c-2c31 (single isomer, unassigned; enantiomer 1) [Example 49, (−)-3-Chloro-17-{3-[(6-fluoronaphthalen-1-yl)oxy]propyl}-4,5-dimethyl-5,7,9,14-tetrahydroindolo[7,1-fg]pyrazolo[3,4-d][2,8]benzoxazacycloundecine-16-carboxylic acid-N-ethylethanamine Salt (Enantiomer 1)]	1e-06	4.7e-10	–	7.88e-07	–	–	–
CCc1nn(CCN2CCOCC2)c2c1-c1c(Cl)ccc3c(CCCOc4cccc5cc(F)ccc45)c(C(=O)O)n(c13)Cc1ccccc1COC2 (single isomer, unassigned; enantiomer 1) [Example 52, (−)-3-Chloro-4-ethyl-17-{3-[(6-fluoronaphthalen-1-yl)oxy]propyl}-6-[2-(morpholin-4-yl)ethyl]-6,7,9,14-tetrahydroindolo[7,1-fg]pyrazolo[3,4-d][2,8]benzoxazacycloundecine-16-carboxylic Acid (Enantiomer 1)]	–	9.6e-10	5.7e-07	–	3.68e-07	–	–
CCc1c2c(nn1C)COCc1ccccc1Cn1c(C(=O)O)c(CCCOc3cccc4cc(F)ccc34)c3ccc(Cl)c-2c31 (single isomer, unassigned; enantiomer 1) [Example 55, (−)-3-Chloro-4-ethyl-17-{3-[(6-fluoronaphthalen-1-yl)oxy]propyl}-5-methyl-5,7,9,14-tetrahydro-indolo[7,1-fg]pyrazolo[3,4-d][2,8]benzoxazacycloundecine-16-carboxylic Acid N-ethylethanamine Salt (Enantiomer 1)]	–	–	–	3.11e-07	–	–	1e-06
CCc1nn(C)c2c1-c1c(Cl)ccc3c(CCCOc4cccc5cc(F)ccc45)c(C(=O)O)n(c13)Cc1ccccc1COC2 (single isomer, unassigned; enantiomer 1) [Example 58, (+)-3-Chloro-4-ethyl-17-{3-[(6-fluoronaphthalen-1-yl)oxy]propyl}-6-methyl-6,7,9,14-tetrahydro-indolo[7,1-fg]pyrazolo[3,4-d][2,8]benzoxazacycloundecine-16-carboxylic acid-N-ethylethanamine Salt (Enantiomer 1)]	–	–	1.2e-06	–	8.34e-07	2.6e-09	–
Cc1c2c(nn1C)COCc1ccccc1Cn1c(C(=O)O)c(CCCOc3cccc4cc(F)ccc34)c3ccc(F)c-2c31 (single isomer, unassigned; enantiomer 1) [Example 65, (−)-3-fluoro-17-{3-[(6-fluoronaphthalen-1-yl)oxy]propyl}-4,5-dimethyl-5,7,9,14-tetrahydroindolo[7,1-fg]pyrazolo[3,4-d][2,8]benzoxazacycloundecine-16-carboxylic acid-N-ethylethanamine Salt (Enantiomer 1)]	1.1e-06	1.3e-09	–	1.04e-06	–	–	–
Cc1c2c(nn1C)COCc1ccccc1Cn1c(C(=O)O)c(CCCOc3cccc4ccccc34)c3ccc(F)c-2c31 (single isomer, unassigned; enantiomer 1) [Example 68, (−)-3-Fluoro-4,5-dimethyl-17-{3-[(naphthalen-1-yl)oxy]propyl}-5,7,9,14-tetrahydroindolo[7,1-fg]pyrazolo[3,4-d][2,8]benzoxazacycloundecine-16-carboxylic acid-N-ethylethanamine Salt (Enantiomer 1)]	–	3.2e-09	–	2.16e-06	–	–	1.4e-06
Cc1c2c(nn1C)COCc1ccccc1Cn1c(C(=O)O)c(CCCOc3cccc4cc(F)ccc34)c3ccc(Cl)c-2c31 (single isomer, unassigned; enantiomer 2) [Example 50, (+)-3-Chloro-17-{3-[(6-fluoronaphthalen-1-yl)oxy]propyl}-4,5-dimethyl-5,7,9,14-tetrahydroindolo[7,1-fg]pyrazolo[3,4-d][2,8]benzoxazacycloundecine-16-carboxylic acid-N-ethylethanamine Salt (Enantiomer 2)]	–	1.4e-09	1.5e-06	1.69e-06	–	–	–
CCc1c2c(nn1C)COCc1ccccc1Cn1c(C(=O)O)c(CCCOc3cccc4cc(F)ccc34)c3ccc(Cl)c-2c31 (single isomer, unassigned; enantiomer 2) [Example 56, (+)-3-Chloro-4-ethyl-17-{3-[(6-fluoronaphthalen-1-yl)oxy]propyl}-5-methyl-5,7,9,14-tetrahydro-indolo[7,1-fg]pyrazolo[3,4-d][2,8]benzoxazacycloundecine-16-carboxylic Acid N-ethylethanamine Salt (Enantiomer 2)]	–	3.2e-09	–	2.35e-06	–	–	2.1e-06
